Measured values: ChEMBL document CHEMBL1130902, “Novel angucycline compound with both antigastrin- and gastric mucosal protective-activities” (1998)

Columns and labels:
Type in all cases: functional
[1] = system: Rattus norvegicus; assay: Percentage dose required to prevent lesion formation in gastric mucosa of unanesthetized rats upon intraperitoneal administration of 1 mg/kg dose in the HCl/ethanol-induced lesion model; settings: ip
[2] = system: Rattus norvegicus; assay: Percent inhibition against pentagastrin-stimulated acid secretion upon intraperitoneal administration of 10 mg/kg dose to urethane anesthetized rats.; settings: ip
[3] = system: Rattus norvegicus; assay: Percentage dose required to prevent lesion formation in gastric mucosa of unanesthetized rats upon intraperitoneal administration of 3 mg/kg dose in the HCl/ethanol-induced lesion model; settings: ip
[4] = system: Rattus norvegicus; assay: Percentage dose required to prevent lesion formation in gastric mucosa of unanesthetized rats upon intraperitoneal administration 30 min prior to an oral dose of HCl/ethanol.
[5] = system: Rattus norvegicus; assay: Percentage dose required to prevent lesion formation in gastric mucosa of unanesthetized rats upon intraperitoneal administration of 10 mg/kg dose in the HCl/ethanol-induced lesion model; settings: ip
[6] = system: Rattus norvegicus; assay: Dose required to prevent lesion formation in gastric mucosa of unanesthetized rats upon subcutaneous administration.

SMILES	inhibition in vivo at 1 mg/kg [1] [%]	inhibition in vivo at 10 mg/kg [2] [%]	inhibition in vivo at 3 mg/kg [3] [%]	% dose [4] [%]	inhibition in vivo at 10 mg/kg [5] [%]	Dose [6] [mg/kg]
CO[C@@H]1C[C@H](O[C@@H]2C=C(C)C[C@@]3(O)[C@H](OC(C)=O)[C@H](O)C4=C(C(=O)c5ccc([C@H]6C[C@@H](O[C@H]7C[C@](C)(O)[C@H](O[C@H]8CC[C@H](NC(N)=O)[C@@H](C)O8)[C@@H](C)O7)[C@H](O)[C@@H](C)O6)c(O)c5C4=O)[C@@]23O)O[C@@H](C)[C@H]1O [COMPOUND P371 A]	52.6	61	81.6	60	83.6	
COc1ccc2c(c1)c(CC(=O)O)c(C)n2C(=O)c1ccc(Cl)cc1 [INDOMETHACIN]	57		64.9		72.8	25
